Measured values as given in ChEMBL document CHEMBL2074397, “Molecular cloning and functional expression of a multispecific organic anion transporter from human kidney” (Am J Physiol, 1999).
One block for each compound: values may come before it.

Columns and labels:
[1] = molecular target: T1, Solute carrier family 22 member 6 (SLC22A6) (Homo sapiens, UniProt Q4U2R8); assay: TP_TRANSPORTER: inhibition of PAH uptake (PAH: 2 uM, Furosemide: 2000 uM) in Xenopus laevis oocytes; type: functional, cell-based, Oocyte; set-up: scale not given: the % may be the effect or the level left; conditions: Xenopus laevis oocytes expressing SLC22A6, probe PAH, read-out: Activity
T1 sequence (Q4U2R8 whole entry): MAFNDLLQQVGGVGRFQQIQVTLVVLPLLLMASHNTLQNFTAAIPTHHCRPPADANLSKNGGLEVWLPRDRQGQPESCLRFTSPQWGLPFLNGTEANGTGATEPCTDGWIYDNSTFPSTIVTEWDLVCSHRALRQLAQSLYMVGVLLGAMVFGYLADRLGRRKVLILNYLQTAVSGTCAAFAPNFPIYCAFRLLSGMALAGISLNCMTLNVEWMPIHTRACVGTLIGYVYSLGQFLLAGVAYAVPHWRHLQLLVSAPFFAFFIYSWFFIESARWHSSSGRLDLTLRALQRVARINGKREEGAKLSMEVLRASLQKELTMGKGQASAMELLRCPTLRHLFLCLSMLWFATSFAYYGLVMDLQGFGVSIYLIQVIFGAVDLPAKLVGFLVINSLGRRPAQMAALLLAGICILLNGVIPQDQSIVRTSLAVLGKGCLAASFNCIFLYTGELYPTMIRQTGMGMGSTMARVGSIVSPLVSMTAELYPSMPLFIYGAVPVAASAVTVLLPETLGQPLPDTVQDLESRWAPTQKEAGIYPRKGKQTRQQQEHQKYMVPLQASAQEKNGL

[2] = molecular target: T2, Solute carrier family 22 member 6 (Homo sapiens, UniProt Q4U2R8); assay: TP_TRANSPORTER: inhibition of PAH uptake (PAH: 2 uM, Indomethacin: 2000 uM) in Xenopus laevis oocytes; type: functional, cell-based; set-up: scale not given: the % may be the effect or the level left; conditions: oocyte
T2 sequence (Q4U2R8 whole entry): T1 sequence (Q4U2R8 whole entry)

[3] = molecular target: T2, Solute carrier family 22 member 6; assay: TP_TRANSPORTER: inhibition of PAH uptake (PAH: 2 uM, Urate: 2000 uM) in Xenopus laevis oocytes; type: functional, cell-based; conditions: oocyte

- activity at 2000 µM [1]: < 0%
Structure (SMILES): NS(=O)(=O)c1cc(C(=O)O)c(NCc2ccco2)cc1Cl [FUROSEMIDE]

- Activity [2]: < 0%
Structure (SMILES): COc1ccc2c(c1)c(CC(=O)O)c(C)n2C(=O)c1ccc(Cl)cc1 [INDOMETHACIN]

Structure (SMILES): O=c1[nH]c(=O)c2[nH]c(=O)[nH]c2[nH]1 [URIC ACID]
- Activity [3]: inhibitor [(at a rough estimate) 5 % of control]
